How the values were obtained:
PC12 cells = assay: Nerve cell protection on hydrogen peroxide-induced cell death (intracellular ATP amount); type: cell-based; conditions: 25, 50, 100 μg/ml for 24 hr, then 0.06 mM hydrogen peroxide; compared with oxidized coenzyme Q10
Description: As one of the causes of the nerve cell death, active oxygen species produced for various reasons is known. Therefore, a cell death protecting action of reduced coenzyme Q10 when PC12 cells are exposed to hydrogen peroxide was examined. PC12 cells were cultured in Dulbecco's Modified Eagle Medium containing 200 units of penicillin, 0.1 μg/ml streptomycin, and 10% fetal bovine serum under 37° C., 5% CO2 conditions. The cells were plated to a 96 well microplate at 1×10^4 cells/well, and cultured under the conditions of 37° C., 5% CO2. After 24 hr, the medium was removed and substituted with Dulbecco's Modified Eagle Medium containing 200 units of penicillin, […] streptomycin and 0.5% fetal bovine serum and supplemented with reduced coenzyme Q10 and oxidized coenzyme Q10 (25, 50, 100 μg/ml). After 24 hr, the medium was removed, and the cells were exposed to hydrogen peroxide so that the final concentration in the same medium would be 0.06 mM 24 hr later, and cultured under the conditions of 37° C., 5% CO2 for 15 min. The cells were washed 3 times with PBS, and the intracellular ATP amount was measured using an ATP quantify kit (Perkin Elmer) and compared.

SAMP8 mice = assay: Step-through passive avoidance learning experiment; type: in vivo, mouse
Text: Aging promoted mouse (SAMP8,3-week-old, male, each group N=8−10) models were divided into a group given a feed (CE-2, manufactured by (LEA Japan, Inc.) containing 0.5% of reduced coenzyme Q10 (containing about 1% oxidized coenzyme Q10) obtained in Production Example 1 and a group given a basic feed (CE-2, manufactured by CLEA Japan, Inc.) alone as a control group. The both groups were allowed a free access to the feed. The dose of reduced coenzyme Q10 obtained from the ingested amount of the feed and the body weight of the animal generally corresponded to 300-500 mg/kg/day.
The effect of reduced coenzyme Q for the learning and memory function was examined by a step-through passive avoidance learning experiment. When SAMP8 mice were placed in a light compartment of an apparatus consisting of two light and dark compartments, they enter the dark compartment since mouse prefers darkness. The mice were taught that the dark compartment was dangerous by applying an electric current (0.5 mA) for 3 sec from the floor of the dark compartment (acquisition trial). […]
To be specific, the mice were placed in the same apparatus again, and the time of stay in the light compartment was measured, based on which the learning, memory function of the mice was compared between with and without ingestion of reduced coenzyme Q in the present invention. […]

[1] = test system: normal rat or spontaneously diabetic rat; conditions: cited from earlier work
[2] = test system: model mouse with Parkinson's disease; conditions: cited from earlier work
rat = conditions: 1.2 g/kg/day for 52 consecutive weeks; cited from earlier work

For `COc1c(O)c(C)c(C/C=C(\C)CC/C=C(\C)CC/C=C(\C)CC/C=C(\C)CC/C=C(\C)CC/C=C(\C)CC/C=C(\C)CC/C=C(\C)CC/C=C(\C)CCC=C(C)C)c(O)c1OC` [reduced coenzyme Q10], the “cell death of PC12 cells induced by hydrogen peroxide” value (PC12 cells) was “significantly prevented”, the “response latency time (passive avoidance test)” value (SAMP8 mice; feed containing 0.5% reduced coenzyme Q10 (300-500 mg/kg/day), after 8 weeks (11-week-old), vs control group) was “the number of mouse that showed a prolonged response latency time increased” and the “learning and memory disorder-improving effect” value (SAMP8 mice; short time administration, feed containing 0.5% reduced coenzyme Q10, 8 weeks) was “a learning and memory disorder-improving effect was observed”. The “tissue degeneration caused by oxidative stress in the pancreas” value ([1]; diabetic rat) was “suppress” and the “amount of 8-hydroxy deoxyguanosine (oxidization marker) in urine” value ([1]; normal rat or spontaneously diabetic rat) was “decrease”.
In the case of oxidized coenzyme Q, the symptom improving effect [2] is listed as “shows a symptom improving effect”.
In the case of `COC1=C(OC)C(=O)C(C/C=C(\C)CC/C=C(\C)CC/C=C(\C)CC/C=C(\C)CC/C=C(\C)CC/C=C(\C)CC/C=C(\C)CC/C=C(\C)CC/C=C(\C)CCC=C(C)C)=C(C)C1=O` [Oxidized coenzyme Q10, oxidized coenzyme Q10], the toxicity (rat) is given as “no toxicity was observed”.

— patent US20090246186A1, “AGENT FOR IMPROVING NERVOUS SYSTEM CELL FUNCTIONS” (KANEKA CORPORATION, priority 2006, published 2009)
